Reference: US20250257325A1, “SYSTEM AND COMPOSITION OF R[…] FOR P[…] VIRUSES AND METHODS THEREOF” (The University of Hong Kong, priority 2024, published 2025)
“Also recorded” adds a separate entry of the source.

Assays:
[1] = system: HRV-C3; assay: Antiviral inhibition in airway organoids infected with HRV-C3 (viral load by RT-qPCR); format: cell-based, human rhinovirus C; conditions: human airway organoids, 1 μM Rupintrivir or 3 μM Itraconazole, 1000 viral gene copy/cell, compared with HRV-A
Protocol: (§1) We then performed an antibody-blocking experiment in nasal organoids to assess the role of CDHR3 on HRV-C replication. We examined HRV-C replication in the nasal organoids in the presence of two a-CDHR3 antibodies or an isotypic IgG. […] Itraconazole^32, a repurposed antifungal drug with documented efficacy against rhinoviruses, was also tested.
(§2) A total of 9 HRV-C positive archived nasopharyngeal specimens from clinical patients were used for the study. Mature human airway and nasal organoids growing on 24-transwell inserts were washed twice with the basal medium (Advanced DMEM/F-12 (Gibco) supplemented with 1% HEPES, 1% GlutaMAX, and 1% Penicillin/Streptomycin), followed by virus inoculation with the indicated viral gene copy and subsequent incubation in the PD medium (PneumaCult-ALI medium (STEMCELL Technologies) supplemented with 10 μM DAPT and 10 μM Y27632), at 37° C. for 4 h. After incubation, the airway or nasal organoids were washed 3 times with the basal medium to remove residual inoculum. The apical and basolateral chambers were replenished with 300 μl and 500 μl PD medium, respectively. As for CYT387 treatment, airway and nasal organoids were pre-incubated in the PD medium with 1 μg/ml CYT387 (Invivogen, inh-cy87) or DMSO overnight. […]

[2] = system: HRV-A1; assay: Antiviral inhibition in airway organoids infected with HRV-A1 (viral load by RT-qPCR); format: cell-based, human rhinovirus A; conditions: human airway organoids, 1 μM Rupintrivir or 3 μM Itraconazole, 1000 viral gene copy/cell, compared with HRV-C
Protocol: as §1, §2

[3] = system: HRV-C3; assay: HRV-C3 replication and serial passage in airway organoids with CYT387 or DMSO (viral load by RT-qPCR); format: cell-based, human rhinovirus C; conditions: human airway organoids; for serial HRV-C propagation (P1-P5) and viral load versus DMSO-treated organoids: 1 μg/ml CYT387, media harvested at 96 h.p.i.
Protocol: We examined HRV-C replication in airway organoids in the presence or absence of CYT387 (FIG. 2A). Briefly, we inoculated an HRV-C3+ medium (medium collected from organoids infected by an HRV-C3+ clinical specimen) onto the airway organoids pre-treated with 1 μg/ml CYT387 or DMSO. The infected organoids were further incubated with CYT387 (CYT thereafter) or DMSO for 96 hours, after which we harvested the culture medium (P1) to examine viral growth. P1 media from CYT- and mock-treated organoids were brought forward to P2 passage in the presence of CYT and DMSO, respectively (FIG. 2A). […] In the following P3 passage, we had to inoculate CYT-treated P2 media onto airway organoids, in which we continued CYT or DMSO treatment to verify the enhancement effect of CYT. This CYT-treated media inoculation, followed by CYT or DMSO treatment, was repeated in the subsequent P4 and P5 passage.
A total of 9 HRV-C positive archived nasopharyngeal specimens from clinical patients were used for the study. Mature human airway and nasal organoids growing on 24-transwell inserts were washed twice with the basal medium (Advanced DMEM/F-12 (Gibco) supplemented with 1% HEPES, 1% GlutaMAX, and 1% Penicillin/Streptomycin), followed by virus inoculation with the indicated viral gene copy and subsequent incubation in the PD medium (PneumaCult-ALI medium (STEMCELL Technologies) supplemented with 10 μM DAPT and 10 μM Y27632), at 37° C. for 4 h. After incubation, the airway or nasal organoids were washed 3 times with the basal medium to remove residual inoculum. The apical and basolateral chambers were replenished with 300 μl and 500 μl PD medium, respectively. As for CYT387 treatment, airway and nasal organoids were pre-incubated in the PD medium with 1 μg/ml CYT387 (Invivogen, inh-cy87) or DMSO overnight. After virus inoculation, PD medium supplemented with 1 μg/ml CYT387 or DMSO was dispersed into apical and basolateral chambers to maintain the organoids. To assess the effect of temperature on viral growth, we infected nasal organoids with HRV-C3 and HRV-A1 at 100 viral gene copy/cell and maintained the organoids at 33° C. or 37° C. […] Culture media were harvested from the infected organoids at the indicated h.p.i. to detect viral replication. To investigate the antiviral effect of inhibitors on HRV-C replication, organoids were inoculated with HRV-A1 or HRV-C3 at 1000 viral gene copy/cell and incubated with the PD medium in the presence of 1 μM Rupintrivir, 3 μM Itraconazole, or DMSO. The culture media were collected at the indicated h.p.i. for viral load detection. […]

[4] = system: HRV-C3; assay: HRV-C3 serial passage in nasal organoids with CYT387 or DMSO (viral load by RT-qPCR); format: cell-based, human rhinovirus C; conditions: human nasal organoids, CYT387 vs DMSO, 100 viral gene copy/cell, 96 h.p.i.
Protocol: We inoculated nasal organoids with the HRV-C3+ medium collected from organoids infected with an HRV-C3+ clinical specimen in the presence of CYT or DMSO and collected culture media at 96 h.p.i. Due to the high viral load in DMSO-treated nasal organoids in a preliminary experiment, we changed the experimental design. Briefly, the virus-containing media from CYT- and DMSO-treated organoids were brought forward to the next round of infection with the CYT and DMSO treatment, respectively (FIG. 3A). […] Nonetheless, in the absence of CYT, nasal organoids derived from two different donors sustained four consecutive passages of HRV-C3 (FIG. 3B). We also tested HRV-C11+ (FIG. 3C) and HRV-C15+ (FIG. 3D) medium (the medium collected from organoids infected with an HRV-C11+ and HRV-C15+ clinical specimen respectively) in nasal organoids derived from another donor. The two subtypes of HRV-C were serially passaged three times with high viral loads, and more passages could be furthered, if necessary. Overall, nasal organoids per se sustained serial propagation of HRV-C without any intervention. […] HRV-C virions released from the nasal organoids were concentrated and applied to transmission electron microscope (TEM) examination. Virion particles sized around 30 nm, and empty capsid particles were readily discernible (FIG. 3F). […]

Structure (SMILES)	inhibitory effect on HRV-C (relative viral load versus DMSO-treated organoids) [1]	inhibitory effect on HRV-A (relative viral load versus DMSO-treated organoids) [2]	serial HRV-C propagation (P1-P5) and viral load versus DMSO-treated organoids [3]	serial HRV-C propagation (P1-P5) and viral load versus DMSO-treated organoids ([3]; listed as CYT)	viral replication in P2 passage ([3]; 1 μg/ml CYT387, no viral growth in DMSO-treated organoids)	viral load in P1 media ([3]; 1 μg/ml CYT387 vs DMSO, first passage, 96 h.p.i.)	viral growth [4]
CCOC(=O)/C=C/[C@H](C[C@@H]1CCNC1=O)NC(=O)[C@@H](CC(=O)[C@@H](NC(=O)c1cc(C)on1)C(C)C)Cc1ccc(F)cc1 [Rupintrivir]	more prominent inhibitory effect	more prominent inhibitory effect of both drugs on HRV-C than HRV-A					
N#CCNC(=O)c1ccc(-c2ccnc(Nc3ccc(N4CCOCC4)cc3)n2)cc1 [CYT387, Momelotinib]			enabled serial propagation	consecutively passaged five times; also recorded: higher viral load	sustained robust viral replication	elevated viral load	significantly boosted viral growth
